Data from patent publication US10765651B2, “Co-crystals of substituted glycine and uses thereof” (SyneuRx International (Taiwan) Corp., priority 2017, dated 2020).
Converted amounts (≈) assume the structure as drawn. Where two headings read alike, the source gives them in different places.

Tests used:
[1] = Hygroscopicity test, condition 2 (humidity chamber, weight change); format: physicochemical; conditions: for Weight change (%): dry before (change on drying to 0 hr weight)
[2] = 70-75% RH, room temperature, 3 days
[3] = DVS, 0 to 70 to 0% RH, 25° C.
Method: Measurement were taken from 0 to 70 to 0% RH at 25° C. with 10% RH per step with equilibration set to dm/dt+0.01%/min for 10 min or 180 min/step.

[4] = physchem; conditions: water, thermodynamic from solid
[5] = Hygroscopicity test, condition 3 (dynamic vapor sorption, 0 to 90 to 0% RH); format: physicochemical; conditions: DVS, 25° C.
Method: Measurement were taken from 0 to 90 to 0% RH at 25° C. with 10% RH per step with equilibration set to dm/dt+0.01%/min for 10 min or 180 min/step.

[6] = Hygroscopicity test of fumaric acid co-crystals under ambient conditions; format: physicochemical
Method: 0.1 to 0.5 g of each of 1:1, 2:1, 3:1, and 6:1 N-methylglycine co-crystals were placed in the vial under the ambient conditions. The weight changes at various time points of each co-crystal were measured and illustrated in Table 4 below.

[7] = 30° C., 75% RH, 72 hr, listed as 2:1 N-methylglycine:L-tartaric acid co-crystal

Structure (SMILES) | Weight ([1]; 30° C., 75% RH, 0 hr) | Weight ([1]; 30° C., 75% RH, 1 hr) | Weight change (%), water absorbed ([1]; 30° C., 75% RH, 1 hr) | Weight ([1]; 30° C., 75% RH, 2 hr) | Weight change (%), water absorbed ([1]; 30° C., 75% RH, 2 hr) | Weight ([1]; 30° C., 75% RH, 3 hr) | Weight change (%), water absorbed ([1]; 30° C., 75% RH, 3 hr) | Weight ([1]; 30° C., 75% RH, 5 hr) | Weight change (%), water absorbed ([1]; 30° C., 75% RH, 5 hr) | Weight ([1]; 30° C., 75% RH, 24 hr) | Weight change (%), water absorbed ([1]; 30° C., 75% RH, 24 hr) | Weight ([1]; 30° C., 75% RH, 48 hr) | Weight change (%), water absorbed ([1]; 30° C., 75% RH, 48 hr) | Weight ([1]; 30° C., 75% RH, 72 hr) | Weight change (%), water absorbed ([1]; 30° C., 75% RH, 72 hr) | Outward (appearance) ([1]; dry before) | Weight ([1]; dry before) | Change In Mass (%) ([6]; 21 hr) | Change In Mass (%) ([6]; 45 hr) | Change In Mass (%) ([6]; 48 hr) | further results
CNCC(=O)O.O=C(O)C(O)C(O)C(=O)O [N-MG/L-TA = 1/1, N-methylglycine:L-tartaric acid (1:1) co-crystal] | 0.1432 g | 0.1437 g | (+0.3%) | 0.1437 g | (+0.3%) | 0.1439 g | (+0.4%) | 0.1439 g | (+0.4%) | 0.1440 g | (+0.5%) | 0.1440 g | (+0.5%) | 0.1441 g | (+0.6%) | White | 0.1434 g | – | – | – | Weight change (%), water absorbed ([1]; 30° C., 75% RH, 5 hr, listed as N-methylglycine:L-tartaric acid co-crystal): 0.4%; Outward (appearance) ([1]; 30° C., 75% RH, 72 hr): remained as white powder; Weight change (%), water absorbed ([1]; 30° C., 75% RH, 72 hr, listed as 1:1 N-methylglycine:L-tartaric acid co-crystal): 0.6%; Hygroscopicity comparison ([1]; 30° C., 75% RH, listed as 1:1 N-methylglycine:L-tartaric acid co-crystal): much less hygroscopic than 2:1 N-methylglycine:L-tartaric acid co-crystal; Weight change (%) [1]: (−0.1%); Appearance after exposure to high humidity [2]: remained as fine white powder; Hygroscopicity comparison [2]: much less hygroscopic than the 2:1 co-crystal; Hygroscopicity comparison [3]: less hygroscopic than N-methylgycine or L-tartaric acid individually
CNCC(=O)O [N-MG, N-methylglycine, reference compound] | 0.1375 g | 0.1585 g | (+15.3%) | 0.1942 g | (+41.2%) | 0.2146 g | (+56.1%) | 0.2403 g | (+74.8%) | 0.2884 g | (+109.7%) | 0.2885 g | (+109.8%) | 0.2885 g | (+109.8%) | White | 0.1375 g | – | – | – | Outward (appearance) ([1]; 30° C., 75% RH, 1 hr): 90%; Outward (appearance) ([1]; 30° C., 75% RH, 3 hr): Liquid; Weight change (%) [1]: (−0%); solubility [4]: 660 mg/mL (≈ 7410 mM); Change In Mass (%) ([5]; RH 0%): 0.0%; Change In Mass (%) ([5]; RH 10%): 0.0%; Change In Mass (%) ([5]; RH 20%): 0.0%; Change In Mass (%) ([5]; RH 30%): 0.0%; Change In Mass (%) ([5]; RH 40%): 0.0%; Change In Mass (%) ([5]; RH 50%): 0.0%; Change In Mass (%) ([5]; RH 60%): 0.0%; Change In Mass (%) ([5]; RH 70%): 38.6%; Change In Mass (%) ([5]; RH 80%): 87.4%; Change In Mass (%) ([5]; RH 90%): 130.9%
CNCC(=O)O.O=C(O)/C=C/C(=O)O [N-MG/FA = 1/1, N-methylglycine:fumaric acid (1:1 co-crystal)] | – | – | – | – | – | – | – | – | – | – | – | – | – | – | – | – | – | 0.96% | 0.96% | 0.96% | Hygroscopicity comparison [6]: much less hygroscopic than the 2:1, 3:1, and 6:1 co-crystals; Change In Mass (%) ([6]; 1 hr): 0.48%; Change In Mass (%) ([6]; 2 hr): 0.67%; Change In Mass (%) ([6]; 3 hr): 0.57%; Change In Mass (%) ([6]; 4 hr): 0.57%; Change In Mass (%) ([6]; 5 hr): 0.57%; Change In Mass (%) ([6]; 24 hr): 0.96%; Change In Mass (%) ([6]; 96 hr): 0.96%
CNCC(=O)O.CNCC(=O)O.CNCC(=O)O.O=C(O)/C=C/C(=O)O [N-MG/FA = 3/1, N-methylglycine:fumaric acid (3:1 co-crystal)] | – | – | – | – | – | – | – | – | – | – | – | – | – | – | – | – | – | 20.78% | 26.13% | 26.37% | Change In Mass (%) ([6]; 15 hr): 18.29%; Change In Mass (%) ([6]; 64 hr): 29.22%

More lines, main results first:

Weight ([1]; 30° C., 75% RH, 0 hr) | Weight ([1]; 30° C., 75% RH, 1 hr) | Weight change (%), water absorbed ([1]; 30° C., 75% RH, 1 hr) | Weight ([1]; 30° C., 75% RH, 2 hr) | Weight change (%), water absorbed ([1]; 30° C., 75% RH, 2 hr) | Weight ([1]; 30° C., 75% RH, 3 hr) | Weight change (%), water absorbed ([1]; 30° C., 75% RH, 3 hr) | Weight ([1]; 30° C., 75% RH, 5 hr) | Weight change (%), water absorbed ([1]; 30° C., 75% RH, 5 hr) | Weight ([1]; 30° C., 75% RH, 24 hr) | Weight change (%), water absorbed ([1]; 30° C., 75% RH, 24 hr) | Weight ([1]; 30° C., 75% RH, 48 hr) | Weight change (%), water absorbed ([1]; 30° C., 75% RH, 48 hr) | Weight ([1]; 30° C., 75% RH, 72 hr) | Weight change (%), water absorbed ([1]; 30° C., 75% RH, 72 hr) | Outward (appearance) ([1]; dry before) | Weight ([1]; dry before) | Change In Mass (%) ([6]; 21 hr) | Change In Mass (%) ([6]; 45 hr) | Change In Mass (%) ([6]; 48 hr) | Structure (SMILES) | further results
0.1455 g | 0.1462 g | (+0.4%) | 0.1463 g | (+0.5%) | 0.1464 g | (+0.6%) | 0.1465 g | (+0.7%) | 0.1465 g | (+0.7%) | 0.1465 g | (+0.7%) | 0.1471 g | (+1.1%) | White | 0.1457 g | – | – | – | CNCC(=O)O.CNCC(=O)O.O=C(O)C(O)C(O)C(=O)O [N-MG/L-TA = 2/1, N-methylglycine:L-tartaric acid 2:1 co-crystal] | Outward (appearance) ([1]; 30° C., 75% RH, 72 hr): Partial; Outward (appearance) [1, 7]: turned into a partial liquid; Weight change (%), water absorbed [1, 7]: 1.1%; Weight change (%) [1]: (−0.1%); Appearance after exposure to high humidity [2]: turned into moisturized and somewhat sticky white solid; Change In Mass (%) ([5]; RH 0%): 0.00%; Change In Mass (%) ([5]; RH 10%): 0.01%; Change In Mass (%) ([5]; RH 20%): 0.03%; Change In Mass (%) ([5]; RH 30%): 0.05%; Change In Mass (%) ([5]; RH 40%): 0.07%; Change In Mass (%) ([5]; RH 50%): 0.09%; Change In Mass (%) ([5]; RH 60%): 0.13%; Change In Mass (%) ([5]; RH 70%): 0.18%; Change In Mass (%) ([5]; RH 80%): 0.32%; Change In Mass (%) ([5]; RH 90%): 10.74%
– | – | – | – | – | – | – | – | – | – | – | – | – | – | – | – | – | 25.14% | 47.59% | 48.84% | CNCC(=O)O.CNCC(=O)O.CNCC(=O)O.CNCC(=O)O.CNCC(=O)O.CNCC(=O)O.O=C(O)/C=C/C(=O)O [N-MG/FA = 6/1, N-methylglycine:fumaric acid (6:1 co-crystal)] | Change In Mass (%) ([6]; 15 hr): 18.30%; Change In Mass (%) ([6]; 64 hr): 56.36%
– | – | – | – | – | – | – | – | – | – | – | – | – | – | – | – | – | 6.29% | 7.08% | 7.12% | CNCC(=O)O.CNCC(=O)O.O=C(O)/C=C/C(=O)O [N-MG/FA = 2/1, N-methylglycine:fumaric acid (2:1 co-crystal)] | Change In Mass (%) ([6]; 15 hr): 5.81%; Change In Mass (%) ([6]; 64 hr): 7.49%
